According to paper PMC10332405 (European journal of medicinal chemistry, 2023):

Key:
[1] = test system: HIV-1-SLK; assay: Antiviral assay with resistant HIV-1 variant SLK; assay type: cell-based; conditions: read-out: Antiviral EC50, HIV-1-SLK; multi-PI resistant recombinant virus
[2] = biological target: HIV-1 protease I84V (Human immunodeficiency virus type 1 group M subtype B, UniProt P12497, I572V/Q495K); assay: biochemical
[3] = biological target: HIV-1 protease I50V/A71V (Human immunodeficiency virus type 1 group M subtype B, UniProt P12497, A559V/I538V/Q495K); assay: biochemical
[4] = test system: human T-cell lymphotropic virus type 1 (HTLV-1) protease; conditions: cited from earlier work

Q: Which EC50 [1] does the source give for `CCOP(=O)(COc1ccc(C[C@H](NC(=O)O[C@H]2CO[C@H]3OCC[C@H]32)[C@H](O)CN(CC(CC)CC)S(=O)(=O)c2ccc3c(c2)OCO3)cc1)OCC` [PU9, (3R,3aS,6aR)-Hexahydrofuro[2,3-b]furan-3-yl ((2S,3R)-1-(4-((diethoxyphosphoryl)methoxy)phenyl)-4-(N-(2-ethylbutyl)benzo[d][1,3]dioxole-5-sulfonamido)-3-hydroxybutan-2-yl)carbamate] here?
A: The EC50 was less than 10 nM.

Q: What does the source list for `CCOP(=O)(COc1ccc(C[C@H](NC(=O)O[C@H]2CO[C@H]3OCC[C@H]32)[C@H](O)CN(CC(C)C)S(=O)(=O)c2ccc(OC)cc2)cc1)OCC` [GS-8374]?
A: Ki [2]: < 0.005 nM; Ki [3]: < 0.005 nM

Q: Which “Inhibition of HTLV-1 protease” value [4] does the source give for `CCOP(=O)(COc1ccc(C[C@H](NC(=O)O[C@H]2CO[C@H]3OCC[C@H]32)[C@H](O)CN(CC(CC)CC)S(=O)(=O)c2ccc(N)cc2)cc1)OCC` [PU6, (3R,3aS,6aR)-Hexahydrofuro[2,3-b]furan-3-yl ((2S,3R)-4-((4-amino-N-(2-ethylbutyl)phenyl)sulfonamido)-1-(4-((diethoxyphosphoryl)methoxy)phenyl)-3-hydroxybutan-2-yl)carbamate] here?
A: The value was “potent inhibitor”.

Q: Which EC50 [1] does the source give for `CCOP(=O)(COc1ccc(C[C@H](NC(=O)O[C@H]2CO[C@H]3OCC[C@H]32)[C@H](O)CN(CC(CC)CC)S(=O)(=O)c2ccc(OC)cc2)cc1)OCC` [PU7, (3R,3aS,6aR)-Hexahydrofuro[2,3-b]furan-3-yl ((2S,3R)-1-(4-((diethoxyphosphoryl)methoxy)phenyl)-4-((N-(2-ethylbutyl)-4-methoxyphenyl)sulfonamido)-3-hydroxybutan-2-yl)carbamate] here?
A: Its EC50 is less than 10 nM.
